pEC50: −log10 of the molar value. Like-named read-outs stand apart in the source and are kept apart here.
Columns and labels:
[1] = target: T1, PRMT5-MEP50 enzyme complex (Homo sapiens, UniProt O14744); assay: PRMT5-MEP50 Enzyme Methylation Assay (Version A); type: biochemical
T1 construct: Full-length (FL)-PRMT5-MEP50 enzyme complex (recombinant proteins from baculovirus-transfected Sf21 cells: FL-PRMT5; MW=73837 kDa and FL-MEP50; MW=38614); made in house; host or cells: baculovirus-transfected Sf21 cells
T1 sequence (O14744 whole entry): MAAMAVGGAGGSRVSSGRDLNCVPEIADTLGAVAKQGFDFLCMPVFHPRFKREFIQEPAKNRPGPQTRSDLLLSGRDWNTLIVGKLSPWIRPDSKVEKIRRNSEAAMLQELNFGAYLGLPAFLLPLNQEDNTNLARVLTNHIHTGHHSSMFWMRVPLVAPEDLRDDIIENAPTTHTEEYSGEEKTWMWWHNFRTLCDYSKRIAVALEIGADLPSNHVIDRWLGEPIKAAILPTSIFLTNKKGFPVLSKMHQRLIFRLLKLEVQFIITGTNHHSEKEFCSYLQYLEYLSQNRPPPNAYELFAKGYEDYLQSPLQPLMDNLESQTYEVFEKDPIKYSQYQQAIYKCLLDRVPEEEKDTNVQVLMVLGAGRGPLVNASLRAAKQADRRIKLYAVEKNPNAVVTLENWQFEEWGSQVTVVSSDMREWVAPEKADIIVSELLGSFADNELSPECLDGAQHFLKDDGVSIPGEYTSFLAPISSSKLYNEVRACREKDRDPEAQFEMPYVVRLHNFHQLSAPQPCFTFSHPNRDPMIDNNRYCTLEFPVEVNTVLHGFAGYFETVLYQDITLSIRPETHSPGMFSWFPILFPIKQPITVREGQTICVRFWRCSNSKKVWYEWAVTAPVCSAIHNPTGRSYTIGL
T1 sequence (Q9BQA1 whole entry partner): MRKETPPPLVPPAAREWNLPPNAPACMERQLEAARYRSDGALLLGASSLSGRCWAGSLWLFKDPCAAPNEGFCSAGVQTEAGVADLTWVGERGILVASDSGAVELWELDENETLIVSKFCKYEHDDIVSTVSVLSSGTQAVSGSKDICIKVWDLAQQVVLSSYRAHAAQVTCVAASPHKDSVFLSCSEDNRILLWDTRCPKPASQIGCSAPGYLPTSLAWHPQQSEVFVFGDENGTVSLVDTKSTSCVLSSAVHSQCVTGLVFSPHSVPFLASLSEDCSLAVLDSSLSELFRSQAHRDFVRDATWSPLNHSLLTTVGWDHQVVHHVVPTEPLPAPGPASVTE

PRMT5 = target: T2, PRMT5 (Homo sapiens, UniProt O14744); assay: PRMT5 Cell Target Engagement (TE) Assay; type: cell-based; conditions: MCF-7 cells, treated for 3 days, symmetric dimethylation of arginine (SDMA) by high content imaging
T2 construct: seeded with 4000 MCF-7 cells in 30 μl media; endogenous in cells; host or cells: MCF-7 cells
T2 sequence (O14744 whole entry): as the sequence (O14744 whole entry) above
T2 sequence (Q9BQA1 whole entry partner): as the sequence (Q9BQA1 whole entry partner) above
Summary of the method: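 Readout is single-cell nuclear symmetric-dimethylarginine immunofluorescence (Alexa488), normalized to DMSO-treated cells. Compounds were applied to MCF-7 cells for 3 days at 37 °C, top concentration 10000 nM in 1:3 steps over ten points; curves fitted with 4-parameter robust fit.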

[2] = only one EC50 shown: 4 parameters single site sigmoidal model, 60 min pre-incubation with SAM, read-out: Enzyme Methylation Assay Version A (EC50)
[3] = first of two EC50s: 7 parameters biphasic model, read-out: Enzyme Methylation Assay Version A (EC50_1)
[4] = second of two EC50s: 7 parameters biphasic model, read-out: Enzyme Methylation Assay Version A (EC50_2)

SMILES | pEC50 [1, 2] | pEC50 (PRMT5) | pEC50 [1, 3] | pEC50 [1, 4]
COc1nc2nc(C(=O)N3CC[C@H](N4CCc5ccccc5C4)[C@@H](O)C3)cn2cc1Br [Example 69, (6-bromo-7-methoxyimidazo[1,2-a]pyrimidin-2-yl)((3S,4S)-4-(3,4-dihydroisoquinolin-2(1H)-yl)-3-hydroxypiperidin-1-yl)methanone] | – | 7.26 | 8.92 | 6.13
CO[C@H](C)c1cc(C)cn2cc(C(=O)N3CC[C@H](N4CCc5ccccc5C4)[C@@H](O)C3)nc12 [Example 59, [(3S,4S)-4-(3,4-dihydroisoquinolin-2(1H)-yl)-3-hydroxypiperidin-1-yl]{8-[(1R)-1-methoxyethyl]-6-methylimidazo[1,2-a]pyridin-2-yl}methanone] | 9.30 | 8.36 | – | –
CC1(C)CC(C2Oc3ccc(C(=O)N4CC[C@H](N5CCc6ccccc6C5)[C@@H](O)C4)cc3NC2=O)CO1 (single isomer, unassigned) [Example 84] | 9.05 | 8.25 | – | –
CC(C#N)c1cnc2nc(C(=O)N3CC[C@H](N4CCc5ccccc5C4)[C@@H](O)C3)cn2c1 (stereo partly drawn) [Example 77, 2-{2-[(3S,4S)-4-(3,4-dihydroisoquinolin-2(1H)-yl)-3-hydroxypiperidine-1-carbonyl]imidazo[1,2-a]pyrimidin-6-yl}propanenitrile] | 8.68 | 7.89 | – | –
Cc1cc(Br)cn2cc(C(=O)N3CC[C@H](N4CCc5ccccc5C4)[C@@H](O)C3)nc12 [Example 135, (6-bromo-8-methylimidazo[1,2-a]pyridin-2-yl)[(3S,4S)-4-(3,4-dihydroisoquinolin-2(1H)-yl)-3-hydroxypiperidin-1-yl]methanone] | 8.77 | 7.92 | – | –
CCOc1cnc(NC2CCN(C(C)=O)CC2)cc1C(=O)N1CC[C@H](N2CCc3ccccc3C2)[C@@H](O)C1 [Example 107, 1-(4-((4-((3S,4S)-4-(3,4-dihydroisoquinolin-2(1H)-yl)-3-hydroxypiperidine-1-carbonyl)-5-ethoxypyridin-2-yl)amino)piperidin-1-yl)ethan-1-one] | 8.68 | 8.10 | – | –
CC(=O)N1CCC(Nc2nccc(C(=O)N3CC[C@H](N4CCc5ccccc5C4)[C@@H](O)C3)c2F)CC1 [Example 18, 1-(4-((4-((3S,4S)-4-(3,4-dihydroisoquinolin-2(1H)-yl)-3-hydroxypiperidine-l-carbonyl)-3-fluoropyridin-2-yl)amino)piperidin-1-yl)ethan-1-one] | – | 7.27 | ~8.52 | 5.17
O=C(c1cc(NC2CCN3C(=O)CCC3C2)ncc1F)N1CC[C@H](N2CCc3ccccc3C2)[C@@H](O)C1 (single isomer, unassigned) [Example 115] | 8.19 | 6.85 | – | –
CC(=O)N1C2CCC1CC(Nc1cc(C(=O)N3CC[C@H](N4CCc5ccccc5C4)[C@@H](O)C3)c(F)cn1)C2 (stereo partly drawn) [Example 122, 1-(3-((4-((3S,4S)-4-(3,4-dihydroisoquinolin-2(1H)-yl)-3-hydroxypiperidine-1-carbonyl)-5-fluoropyridin-2-yl)amino)-8-azabicyclo[3.2.1]octan-8-yl)ethan-1-one] | 8.47 | 8.23 | – | –
CC(=O)N1CCC(Nc2nccc(C(=O)N3CC[C@@H](N4CCc5ccccc5C4)[C@H](O)C3)c2F)CC1 [Example 19, 1-(4-((4-((3R,4R)-4-(3,4-dihydroisoquinolin-2(1H)-yl)-3-hydroxypiperidine-1-carbonyl)-3-fluoropyridin-2-yl)amino)piperidin-1-yl)ethan-1-one] | 6.29 | 5.01 | – | –
O=C(c1cn2cc(Br)cnc2n1)N1CC[C@H](N2CCc3ccccc3C2)[C@@H](O)C1 [Example 71, (6-bromoimidazo[1,2-a]pyrimidin-2-yl)[(3S,4S)-4-(3,4-dihydroisoquinolin-2(1H)-yl)-3-hydroxypiperidin-1-yl]methanone] | 8.96 | 8.00 | – | –

Results, then the compound that gave them:

pEC50 [1, 2] | pEC50 (PRMT5) | pEC50 [1, 3] | pEC50 [1, 4] | SMILES
9.15 | 7.68 | – | – | O=C(c1cn2cc(Br)c(C3CC3)nc2n1)N1CC[C@H](N2CCc3ccccc3C2)[C@@H](O)C1 [Example 78, (6-bromo-7-cyclopropylimidazo[1,2-a]pyrimidin-2-yl)[(3S,4S)-4-(3,4-dihydroisoquinolin-2(1H)-yl)-3-hydroxypiperidin-1-yl]methanone]
– | 7.80 | 9.05 | 5.54 | CC1(C)Oc2ccc(C(=O)N3CC[C@H](N4CCc5ccccc5C4)[C@@H](O)C3)cc2NC1=O [Example 101, 6-((3S,4S)-4-(3,4-dihydroisoquinolin-2(1H)-yl)-3-hydroxypiperidine-1-carbonyl)-2,2-dimethyl-2H-benzo[b][1,4]oxazin-3(4H)-one]
8.85 | 8.09 | – | – | CN(C)C(=O)N1CCC(Nc2cc(C(=O)N3CC[C@H](N4CCc5ccccc5C4)[C@@H](O)C3)c(F)cn2)CC1 [Example 110, 4-((4-((3S,4S)-4-(3,4-dihydroisoquinolin-2(1H)-yl)-3-hydroxypiperidine-1-carbonyl)-5-fluoropyridin-2-yl)amino)-N,N-dimethylpiperidine-1-carboxamide]
8.96 | 8.04 | – | – | O=C(c1cn2cc(C(F)(F)F)cc(Cl)c2n1)N1CC[C@H](N2CCc3ccccc3C2)[C@@H](O)C1 [Example 137, [8-chloro-6-(trifluoromethyl)imidazo[1,2-a]pyridin-2-yl][(3S,4S)-4-(3,4-dihydroisoquinolin-2(1H)-yl)-3-hydroxypiperidin-1-yl]methanone]
– | 7.48 | 8.28 | 5.37 | CC(=O)N1C[C@H]2CC[C@@H](C1)C2Nc1cc(C(=O)N2CC[C@H](N3CCc4ccccc4C3)[C@@H](O)C2)c(F)cn1 (stereo partly drawn) [Example 124, 1-((1R,5S)-8-((4-((3S,4S)-4-(3,4-dihydroisoquinolin-2(1H)-yl)-3-hydroxypiperidine-1-carbonyl)-5-fluoropyridin-2-yl)amino)-3-azabicyclo[3.2.1]octan-3-yl)ethan-1-one]
– | 5.65 | 8.51 | 5.77 | Cc1c(Br)cnc2ncc(C(=O)N3CC[C@H](N4CCc5ccccc5C4)[C@@H](O)C3)n12 [Example 76, (6-bromo-5-methylimidazo[1,2-a]pyrimidin-3-yl)[(3S,4S)-4-(3,4-dihydroisoquinolin-2(1H)-yl)-3-hydroxypiperidin-1-yl]methanone]

Source: patent publication US12595248B2, “PRMT5 inhibitors” (Merck Sharp & Dohme LLC, priority 2019, dated 2026)
